Values of other authors in patent publication US20240315956A1, “METHOD OF PRODUCTION OF THE COMPOSITION OF CYCLOOXYGENASE-2 (COX-2) INHIBITORS” (US NANO FOOD & DRUG INC, priority 2021, published 2024).

pKa | solubility in water | SMILES
15 | – | Nc1nnc(-c2cccc(Cl)c2Cl)c(N)n1 [lamotrigine]
10.73 | – | CCC1(C)CC(=O)NC1=O (stereo not shown) [ethosuximide]
– | practically insoluble in water | CCCN1CC(c2ccc(S(C)(=O)=O)cc2)=C(c2ccc(C)cc2)C1=O [Imrecoxib]
– | practically insoluble in water | Cc1ccc(-c2cc(C(F)(F)F)nn2-c2ccc(S(N)(=O)=O)cc2)cc1 [Celecoxib]
